From patent publication US9365604B2, “Oligomer-nucleoside phosphate conjugates” (NEKTAR THERAPEUTICS, priority 2007, dated 2016)
Where two headings read alike, the source gives them in different places.

How the values were obtained:
[1] = system: PANC-1; details: Zajchowski et al. 2005; cited from earlier work
[2] = system: DU145; assay: Sulforhodamine B (SRB) growth inhibition assay; format: cell-based, Human; details: Homo sapiens, DU-145, SRB assay, cells exposed for 24 h, read-out: GI50 values (μM) DU145
Protocol: (§1) The aim was to determine the GI50 values for PEG-floxuridine conjugates against a panel of cell lines, and based on previous data from Xenograft studies. […] The test articles were solubilized in dimethylsulfoxide and were tested at four different molar (M) concentrations; 10^−4, 10^−5, 10^−6, M. GI50 (the concentration needed to reduce the growth of treated cells to half that of untreated control cells) was calculated for each condition ([(Ti−Tz)/(C-Tz)]×100=50, where Ti, Tz, and C refer to absorbance values obtained from each tested concentration, time zero, and control treatment, respectively).
as §1, with “The objective” for “The aim”, “the IC50” for “the GI50”, “for PEG-gemcitabine” for “for PEG-floxuridine”, “in dimethyl sulfoxide” for “in dimethylsulfoxide”, “10^−6, 10^−7” for “10^−6,”, “condition ([(Ti−Tz)/(C−Tz)]×100=50,” for “condition ([(Ti−Tz)/(C-Tz)]×100=50,”

[3] = system: MDCK cells
From the text: (§5) Bi-Directional Permeability of PEG-Floxuridine Conjugates in Caco-2 and MDCK Cells

[4] = Bi-directional permeability in MDCK cells; details: dog
From the text: as §5

[5] = Stability in cell culture medium (floxuridine release, HPLC); format: in vitro ADME
Protocol: The frozen samples were thawed and homogenized by vortex mixing. A 10 μl aliquot of the sample was transferred into a clean EPPENDORF tube. Samples were diluted with 190 μl methanol: water mixture (1:1, v/v). The tubes were vortex mixed and centrifuged for 10 min. The supernatant was transferred to HPLC vials and 10 μl volume of the sample was injected onto the HPLC system.

[6] = system: HCT-116; assay: In vitro cytotoxicity assay (CellTiter-Glo); format: cell-based; details: Homo sapiens, 72 h exposure, CellTiter-Glo
Protocol: (§2) The objective of these studies were to determine the IC50 values for PEG-floxuridine conjugates against floxuridine-resistant cell lines based on data from previous Xenograft studies. The cells were exposed for 72 h, and cell viability assessed by using the CellTiter-Glo assay.
(§3) The objective of these studies was to determine the IC50 values for PEG-gemcitabine conjugates against gemcitabine-resistant cell lines based on data from previous Xenograft studies. The cells were exposed for 72 h, and cell viability assessed by using the CellTiter-Glo assay.

[7] = system: HT-29; assay: In vitro cytotoxicity assay (CellTiter-Glo); format: cell-based; details: Homo sapiens, 72 h exposure, CellTiter-Glo
Protocol: as §2, §3

[8] = system: MIA PaCa-2; assay: In vitro cytotoxicity assay (CellTiter-Glo); format: cell-based; details: Homo sapiens, 72 h exposure, CellTiter-Glo
Protocol: as §2, §3

[9] = system: Caco-2 cells
From the text: as §5

[10] = system: A2780; assay: Sulforhodamine B (SRB) growth inhibition assay; format: cell-based, Human; details: Homo sapiens, SRB assay
Protocol: (§4) In Vitro Screening of PEG-Gemcitabine Monophosphate in Selected Human Cancer Cell Lines
as §1
as §1, with “The objective” for “The aim”, “the IC50” for “the GI50”, “for PEG-gemcitabine” for “for PEG-floxuridine”, “in dimethyl sulfoxide” for “in dimethylsulfoxide”, “10^−6, 10^−7” for “10^−6,”, “condition ([(Ti−Tz)/(C−Tz)]×100=50,” for “condition ([(Ti−Tz)/(C-Tz)]×100=50,”

[11] = system: HT29; assay: Sulforhodamine B (SRB) growth inhibition assay; format: cell-based, Human; details: Homo sapiens, HT-29, SRB assay
Protocol: as §4, §1
as §1, with “The objective” for “The aim”, “the IC50” for “the GI50”, “for PEG-gemcitabine” for “for PEG-floxuridine”, “in dimethyl sulfoxide” for “in dimethylsulfoxide”, “10^−6, 10^−7” for “10^−6,”, “condition ([(Ti−Tz)/(C−Tz)]×100=50,” for “condition ([(Ti−Tz)/(C-Tz)]×100=50,”

[12] = system: MCF7; assay: Sulforhodamine B (SRB) growth inhibition assay; format: cell-based, Human; details: Homo sapiens
Protocol: as §4, §1
as §1, with “The objective” for “The aim”, “the IC50” for “the GI50”, “for PEG-gemcitabine” for “for PEG-floxuridine”, “in dimethyl sulfoxide” for “in dimethylsulfoxide”, “10^−6, 10^−7” for “10^−6,”, “condition ([(Ti−Tz)/(C−Tz)]×100=50,” for “condition ([(Ti−Tz)/(C-Tz)]×100=50,”

[13] = system: Hop62; assay: Sulforhodamine B (SRB) growth inhibition assay; format: cell-based, Human; details: Homo sapiens, HOP-62, SRB assay
Protocol: as §4, §1
as §1, with “The objective” for “The aim”, “the IC50” for “the GI50”, “for PEG-gemcitabine” for “for PEG-floxuridine”, “in dimethyl sulfoxide” for “in dimethylsulfoxide”, “10^−6, 10^−7” for “10^−6,”, “condition ([(Ti−Tz)/(C−Tz)]×100=50,” for “condition ([(Ti−Tz)/(C-Tz)]×100=50,”

[14] = in vitro; details: dog, MDCK
From the text: as §5

[15] = in vitro; details: human, Caco-2
From the text: as §5

[16] = system: CAKI-1; assay: In vitro cytotoxicity assay (CellTiter-Glo); format: cell-based; details: Homo sapiens, 72 h exposure, CellTiter-Glo
[17] = Bi-directional permeability in Caco-2 cells; details: human
From the text: as §5

[18] = system: MDCK cells; assay: Bi-directional permeability in MDCK cells
From the text: as §5

[19] = system: NCI-H522; assay: In vitro cytotoxicity assay (CellTiter-Glo); format: cell-based; details: Homo sapiens, 72 h exposure, CellTiter-Glo
Protocol: as §3

[20] = system: DLD-1; assay: In vitro cytotoxicity assay (CellTiter-Glo); format: cell-based; details: Homo sapiens, 72 h exposure, CellTiter-Glo
Protocol: as §3

[21] = system: RL; assay: In vitro cytotoxicity assay (CellTiter-Glo); format: cell-based; details: Homo sapiens, 72 h exposure, CellTiter-Glo
Protocol: as §3

[22] = system: SW-620; assay: In vitro cytotoxicity assay (CellTiter-Glo); format: cell-based; details: Homo sapiens, 72 h exposure, CellTiter-Glo
Protocol: as §3

[23] = system: CCRF-CEM; assay: In vitro cytotoxicity assay (CellTiter-Glo); format: cell-based; details: Homo sapiens, 72 h exposure, CellTiter-Glo
Protocol: as §3

[24] = system: K-562; assay: In vitro cytotoxicity assay (CellTiter-Glo); format: cell-based; details: Homo sapiens, K562, 72 h exposure, CellTiter-Glo
Protocol: as §3

[25] = system: HL-60; assay: In vitro cytotoxicity assay (CellTiter-Glo); format: cell-based; details: Homo sapiens, 72 h exposure, CellTiter-Glo
Protocol: as §3

[26] = system: NCI-H23; assay: In vitro cytotoxicity assay (CellTiter-Glo); format: cell-based; details: Homo sapiens, 72 h exposure, CellTiter-Glo
Protocol: as §3

[27] = system: NCI-H460; assay: In vitro cytotoxicity assay (CellTiter-Glo); format: cell-based; details: Homo sapiens, 72 h exposure, CellTiter-Glo
Protocol: as §3

[28] = system: AS283; assay: In vitro cytotoxicity assay (CellTiter-Glo); format: cell-based; details: 72 h exposure, CellTiter-Glo
Protocol: as §3

[29] = in vitro; details: human
Protocol: Cells were inoculated into 24-well microtiter plates in 100 μL at 5×10^3 cells/well, in duplicate. After 24 h, test articles were added to the cells for 24 or 48 h, after which time the supernatant from each of the wells was collected and stored below −15° C. until LC/MS analysis.

[30] = system: COLO205; assay: Sulforhodamine B (SRB) growth inhibition assay; format: cell-based, Human; details: Homo sapiens, COLO 205, COLO205, SRB assay
Protocol: as §4, §1
as §1, with “The objective” for “The aim”, “the IC50” for “the GI50”, “for PEG-gemcitabine” for “for PEG-floxuridine”, “in dimethyl sulfoxide” for “in dimethylsulfoxide”, “10^−6, 10^−7” for “10^−6,”, “condition ([(Ti−Tz)/(C−Tz)]×100=50,” for “condition ([(Ti−Tz)/(C-Tz)]×100=50,”

[31] = system: HCT15; assay: Sulforhodamine B (SRB) growth inhibition assay; format: cell-based, Human; details: Homo sapiens, HCT-15, SRB assay
Protocol: as §4, §1
as §1, with “The objective” for “The aim”, “the IC50” for “the GI50”, “for PEG-gemcitabine” for “for PEG-floxuridine”, “in dimethyl sulfoxide” for “in dimethylsulfoxide”, “10^−6, 10^−7” for “10^−6,”, “condition ([(Ti−Tz)/(C−Tz)]×100=50,” for “condition ([(Ti−Tz)/(C-Tz)]×100=50,”

[32] = system: PANC-1; assay: In vitro cytotoxicity assay (CellTiter-Glo); format: cell-based; details: Homo sapiens, 72 h exposure
Protocol: as §3
The PEG-gemcitabine derivatives and gemcitabine inhibited the growth of most of the cell lines with IC50 values from the nM to low μM range, except for PANC-1 cells. Like the previous study, some of the IC50 values should be interpreted carefully because the concentration range tested was not centered around the IC50. […] The PANC-1 pancreatic cell line, in contrast to BxPC-3, Capan-1, or MIA-PaCa-2, has been shown previously to be resistant in vitro to gemcitabine, and 4′-thio-FAC, a deoxycytidine sulfur- and fluoro-substituted analog (Zajchowski et al., (2005). Int J Cancer. 114(6), 1002-9).

[33] = system: Caco-2 cells; assay: Bi-directional permeability in Caco-2 cells
From the text: as §5

[34] = cells exposed for 24 h, read-out: GI50 values (μM) A2780
[35] = cells exposed for 24 h, read-out: GI50 values (μM) HT29
[36] = SRB assay, cells exposed for 24 h, read-out: GI50 values (μM) MCF7
[37] = cells exposed for 24 h, read-out: GI50 values (μM) Hop62
[38] = Caco-2, percent recovery A -> B
[39] = Caco-2, percent recovery B -> A

Nc1ccn([C@@H]2S[C@H](CO)[C@@H](O)[C@@H]2F)c(=O)n1 [4′-thio-FAC]
resistance of PANC-1 in vitro (shown previously) [1]: resistant

O=c1[nH]c(=O)n([C@H]2C[C@H](O)[C@@H](CO)O2)cc1F [Floxuridine, reference compound]
GI50 [2]: 26 µM
Significant efflux [3]: No
permeability through MDCK monolayers (in words) [3]: poor permeability
recovery ([4]; percent recovery A -> B): 50%
recovery ([4]; percent recovery B -> A): 82%
Peak Area of measured floxuridine ([5]; HPLC, supernatant of MCF-7 culture after 48 h with test article): 119819
concentration of floxuridine estimated in culture medium ([5]; after cells were treated with test article): 24.44
Calculated Concentration (μg/mL) of floxuridine ([5]; diluted sample (10 μL diluted to 200 μL), MCF-7 culture supernatant, 48 h): 1.211 µg/mL
Total Calculated Concentration in the sample using dilution factor ([5]; floxuridine in MCF-7 culture supernatant, 48 h, nominal 24.6 μg/mL): 24.22
IC50 [6]: 32 nM
IC50 [7]: 90 nM
IC50 [8]: 54 nM
Significant efflux [9]: No
permeability across Caco-2 monolayers (in words) [9]: poor permeability
GI50 [10, 34]: 0.065 µM
GI50 [11, 35]: 25 µM
GI50 [12, 36]: 0.15 µM
GI50 [13, 37]: 0.24 µM
Papp A→B [14]: < 2.46 ×10⁻⁶ cm/s
Papp B→A [14]: < 2.7 ×10⁻⁶ cm/s
Papp A→B [15]: 0.75 ×10⁻⁶ cm/s
Papp B→A [15]: 1.47 ×10⁻⁶ cm/s
efflux ratio [15]: 2
IC50 [16]: 110 nM
recovery [17, 38]: 75%
recovery [17, 39]: 91%

Nc1ccn([C@@H]2O[C@H](CO)[C@@H](O)C2(F)F)c(=O)n1 [Gemcitabine, reference compound]
GI50 [2]: < 0.1 µM
Significant efflux [3]: No
resistance of PANC-1 in vitro (shown previously) [1]: resistant
Papp A→B [4]: 0.17 ×10⁻⁶ cm/s
Papp B→A [4]: 0.12 ×10⁻⁶ cm/s
efflux ratio [4]: 0.7
recovery ([4]; percent recovery A -> B): 96%
recovery ([4]; percent recovery B -> A): 95%
permeability through MDCK monolayers (in words) [18]: poor permeability
IC50 [6]: 1.9 nM
IC50 [7]: 111 nM
IC50 [8]: 26 nM
Significant efflux [9]: No
IC50 [19]: 4.4 nM
IC50 [20]: 22 nM
IC50 [21]: 281 nM
IC50 [22]: 49 nM
IC50 [23]: 7 nM
IC50 [24]: 697 nM
IC50 [25]: 1.7 nM
IC50 [26]: 6.9 nM
IC50 [27]: 14 nM
IC50 [28]: 124 nM
recovery [29]: 100 to 110%
GI50 ([30]; 48 h drug exposure, read-out: GI50 (molar concentration) in Cell Line COLO205): 0.14 µM
GI50 ([30]; cells exposed for 24 h, read-out: GI50 values (μM) COLO205): 0.14 µM
GI50 ([10]; 48 h drug exposure, read-out: GI50 (molar concentration) in Cell Line A2780): < 0.1 µM
GI50 [10, 34]: < 0.1 µM
GI50 ([11]; 48 h drug exposure, read-out: GI50 (molar concentration) in Cell Line HT29): 2.1 µM
GI50 [11, 35]: 2.1 µM
GI50 ([31]; 48 h drug exposure, read-out: GI50 (molar concentration) in Cell Line HCT15): 0.16 µM
GI50 ([31]; cells exposed for 24 h, read-out: GI50 values (μM) HCT15): 0.16 µM
GI50 ([12]; MCF-7 cell line, read-out: GI50 (MCF-7 moderately sensitive)): ~0.1 µM
GI50 ([12]; SRB assay, 48 h drug exposure, read-out: GI50 (molar concentration) in Cell Line MCF7): < 0.1 µM
GI50 [12, 36]: < 0.1 µM
GI50 ([13]; 48 h drug exposure, read-out: GI50 (molar concentration) in Cell Line Hop62): 1.8 µM
GI50 [13, 37]: 1.8 µM
IC50 [32]: > 1e+06 nM
IC50 [16]: 8.3 nM
permeability across Caco-2 monolayers (in words) [33]: poor permeability
Papp A→B [17]: 0.3 ×10⁻⁶ cm/s
Papp B→A [17]: 0.42 ×10⁻⁶ cm/s
efflux ratio [17]: 1.4
recovery [17, 38]: 90%
recovery [17, 39]: 89%
